Assay [1] deals with MCF-7 cells. As to the kind of experiment: Fatty acid oxidation ([1-14C]palmitate to 14CO2) in MCF-7 cells. Format: cell-based, human. How it is done:
(§1) Human breast cancer cell line MCF-7 was obtained from the American Type Culture Collection. 1×10^6 MCF-7 cells were plated in T-25 flasks in triplicate and incubated overnight at 37° C. Drugs were then added as indicated diluted from 5 mg/ml stock in DMSO. After 2 hours, medium with drugs was removed and cells were preincubated for 30 min. with 1.5 ml of the following buffer: 114 mM NaCl, 4.7 mM KCl, 1.2 mM KH2PO4, 1.2 mM MgSO4, glucose 11 mM. After preincubation, 200 μl of assay buffer was added containing: 114 mM NaCl, 4.7 mM KCl, 1.2 mM KH2PO4, 1.2 mM MgSO4, glucose 11 mM, 2.5 mM palmitate (containing with 10 μCi of [1-^14C]palmitate) bound to albumin, 0.8 mM L-carnitine, and cells were incubated at 37° C. for 2 h. Following the incubation, 400 μl of benzethonium hydrochloride was added to the center well to collect released ^14CO2. Immediately, the reaction was stopped by adding 500 μl of 7% perchloric acid to the cells. The flasks with wells were then incubated for 2 h at 37° C. after which the benzothonium hydrochloride was removed and counted for ^14C. Blanks were prepared by adding 500 μl of 7% perchloric acid to the cells prior to the incubation with the assay buffer for 2 h.
(§2) FAS activity was measured by monitoring the malonyl-CoA dependent oxidation of NADPH spectrophotometrically at OD340 in 96-well plates, as described in International Patent Publication WO 2004/005277. The IC50 for the compounds against FAS was determined by plotting the change in OD340 against time for each inhibitor concentration tested and determining the rate of change by linear regression. The concentration of a particular compound yielding 50% inhibition of the rate for FAS in the absence of the compound is the IC50. Stimulation of CPT-1 activity was measured as described in Example 2, except the cells were preincubated with the compound for 2 hours at the concentrations indicated in the table. Stimulation of Fatty acid oxidation was determined as described in Example 1 for cells preincubated with the compounds at the concentrations indicated in the table.

In a further assay the test system is CPT-1. As to the kind of experiment: CPT-1 activity in differentiated 3T3-L1 adipocytes. The class given is cell-based, mouse. The following applies: 2 hours. How it is done:
CPT-1 activity was assayed in MCF-7 cells by the following published procedure: MCF-7 cells were plated in DMEM with 10% fetal bovine serum at 10^6 cells in 24-well plates in triplicate. Following overnight incubation at 37° C., the medium was removed and replaced with 700 μl of assay medium consisting of: 50 mM imidazole, 70 mM KCl, 80 mM sucrose, 1 mM EGTA, 2 mM MgCl2, 1 mM DTT, 1 mM KCN, 1 mM ATP, 0.1% fatty acid free bovine serum albumin, 70 μM palmitoyl-CoA, 0.25 μCi [methyl-^14C]L-carnitine, 40 μg digitonin with or without 20 μM malonyl-CoA. After incubation for 6 minutes at 37° C., the reaction was stopped by the addition of 500 μl of ice-cold 4 M perchloric acid. Cells were then harvested and centrifuged at 13,000×g for 5 min. […] The butanol phase was counted by liquid scintillation and represents the acylcarnitine derivative.
(§3) To expand the study of effects of C75 on fatty acid metabolism beyond cancer cell lines to normal adipocytes, differentiated (non-transformed) mouse NIH 3T3-L1 adipocytes were used in assays similar to those performed with the MCF-7 cells. […] The differentiated cells were ready to be used for experiments in 7-10 days.
(§4) C75 increased CPT-1 activity and fatty acid metabolism in the NIH 3T3-L1 cells differentiated into adipocytes. […] CPT-1 activity, fatty acid oxidation, and total cellular ATP were measured as described in Examples 2, 1, and 4. […]

The test system of assay [2] is 3T3-L1 adipocytes. As to the kind of experiment: Fatty acid oxidation in differentiated 3T3-L1 adipocytes. Format: cell-based, mouse. The settings on record: 20 μg/ml or greater, 2 hours, FIG. 6. How it is done:
as §1, with “Following the incubation, 400 μl of benzethonium hydrochloride was added to the center well to collect released ^14CO2. Immediately, the reaction was stopped by adding 500 μl of 7% perchloric acid to the cells.” left out, “Blanks were prepared by adding 500 μl of 7% perchloric acid to the cells prior to the incubation with the assay buffer for 2 h.” left out
as §3, §4

The test system of assay [3] is 3T3-L1 adipocytes. As to the kind of experiment: Total cellular ATP in differentiated 3T3-L1 adipocytes. Format: cell-based, mouse. The settings on record: 20 μg/ml or greater, 2 hours, FIG. 7. How it is done: 1×10^5 MCF-7 cells were plated in 96 well plates. Cells were treated with C75 or vehicle. After 2 hours, ATP was measured using a luciferase assay using the ATP Bioluminescence Kit CLS II (Roche) following the manufacturer's protocol. Plates were read by a Perkin Elmer Wallac Victor^2 1420 luminometer. […] Similar results were obtained after 1 hr incubation with C75. Thus, cellular energy production increased as a result of C75 increasing fatty acid oxidation.
To expand the study of effects of C75 on fatty acid metabolism beyond cancer cell lines to normal adipocytes, differentiated (non-transformed) mouse NIH 3T3-L1 adipocytes were used in assays similar to those performed with the MCF-7 cells. 3T3-L1 cells were obtained from the American Type Culture Collection, and cells were cultured in DMEM with high glucose (4.5 g/l ) (Gibco 12100-046) with 10% fetal calf serum and Biotin (Sigma B-4639) 0.008 g/L. Differentiation was initiated three days after the cells were confluent, when the standard culture medium was replaced with differentiation medium. […] The differentiated cells were ready to be used for experiments in 7-10 days.
as §4

Assay [4] can be described thus: Respiratory exchange ratio by indirect calorimetry (Oxymax) in mice. The class given is in vivo. How it is done: In keeping with the C75 effect on both human and murine CPT-1 and fatty acid metabolism, C75 induces a profound and rapid stimulation of fatty acid oxidation in vivo. Mice were maintained in the Oxymax calorimeter (Oxymax Equal Flow System®, Columbus Instruments, Columbus, Ohio). Oxygen consumption and CO2 production was measured in up to four mice simultaneously using the indirect calorimeter. Measurements were recorded every 15 minutes over the entire course of the experiments. The respiratory exchange ratio (RER) was calculated by the Oxymax® software version 5.9. RER is defined as the ratio of CO2 to O2 at any given time irrespective if equilibrium was reached. Mice were maintained on water and mouse chow ad libitum. In the control mice (FIG. 8A), note the diurnal variation of RER indicating feeding and resting cycles of the animals. An RER of 1 is consistent with oxidation of carbohydrates while 0.7 indicates oxidation of fatty acids. […] C75 treatment at 30 mg/kg disrupts the diurnal pattern of the control mice, showing a rapid drop in RER to complete oxidation of fatty acids within about 2 hours. […] Importantly, the rate of decline of RER was similar to that observed for animals deprived of food (data not shown).

The target of a further assay is FAS (Homo sapiens, UniProt P49327). As to the kind of experiment: FAS activity, malonyl-CoA dependent oxidation of NADPH at OD340. The class given is biochemical. As to the method: as §2
Chain of FAS (P49327 whole entry): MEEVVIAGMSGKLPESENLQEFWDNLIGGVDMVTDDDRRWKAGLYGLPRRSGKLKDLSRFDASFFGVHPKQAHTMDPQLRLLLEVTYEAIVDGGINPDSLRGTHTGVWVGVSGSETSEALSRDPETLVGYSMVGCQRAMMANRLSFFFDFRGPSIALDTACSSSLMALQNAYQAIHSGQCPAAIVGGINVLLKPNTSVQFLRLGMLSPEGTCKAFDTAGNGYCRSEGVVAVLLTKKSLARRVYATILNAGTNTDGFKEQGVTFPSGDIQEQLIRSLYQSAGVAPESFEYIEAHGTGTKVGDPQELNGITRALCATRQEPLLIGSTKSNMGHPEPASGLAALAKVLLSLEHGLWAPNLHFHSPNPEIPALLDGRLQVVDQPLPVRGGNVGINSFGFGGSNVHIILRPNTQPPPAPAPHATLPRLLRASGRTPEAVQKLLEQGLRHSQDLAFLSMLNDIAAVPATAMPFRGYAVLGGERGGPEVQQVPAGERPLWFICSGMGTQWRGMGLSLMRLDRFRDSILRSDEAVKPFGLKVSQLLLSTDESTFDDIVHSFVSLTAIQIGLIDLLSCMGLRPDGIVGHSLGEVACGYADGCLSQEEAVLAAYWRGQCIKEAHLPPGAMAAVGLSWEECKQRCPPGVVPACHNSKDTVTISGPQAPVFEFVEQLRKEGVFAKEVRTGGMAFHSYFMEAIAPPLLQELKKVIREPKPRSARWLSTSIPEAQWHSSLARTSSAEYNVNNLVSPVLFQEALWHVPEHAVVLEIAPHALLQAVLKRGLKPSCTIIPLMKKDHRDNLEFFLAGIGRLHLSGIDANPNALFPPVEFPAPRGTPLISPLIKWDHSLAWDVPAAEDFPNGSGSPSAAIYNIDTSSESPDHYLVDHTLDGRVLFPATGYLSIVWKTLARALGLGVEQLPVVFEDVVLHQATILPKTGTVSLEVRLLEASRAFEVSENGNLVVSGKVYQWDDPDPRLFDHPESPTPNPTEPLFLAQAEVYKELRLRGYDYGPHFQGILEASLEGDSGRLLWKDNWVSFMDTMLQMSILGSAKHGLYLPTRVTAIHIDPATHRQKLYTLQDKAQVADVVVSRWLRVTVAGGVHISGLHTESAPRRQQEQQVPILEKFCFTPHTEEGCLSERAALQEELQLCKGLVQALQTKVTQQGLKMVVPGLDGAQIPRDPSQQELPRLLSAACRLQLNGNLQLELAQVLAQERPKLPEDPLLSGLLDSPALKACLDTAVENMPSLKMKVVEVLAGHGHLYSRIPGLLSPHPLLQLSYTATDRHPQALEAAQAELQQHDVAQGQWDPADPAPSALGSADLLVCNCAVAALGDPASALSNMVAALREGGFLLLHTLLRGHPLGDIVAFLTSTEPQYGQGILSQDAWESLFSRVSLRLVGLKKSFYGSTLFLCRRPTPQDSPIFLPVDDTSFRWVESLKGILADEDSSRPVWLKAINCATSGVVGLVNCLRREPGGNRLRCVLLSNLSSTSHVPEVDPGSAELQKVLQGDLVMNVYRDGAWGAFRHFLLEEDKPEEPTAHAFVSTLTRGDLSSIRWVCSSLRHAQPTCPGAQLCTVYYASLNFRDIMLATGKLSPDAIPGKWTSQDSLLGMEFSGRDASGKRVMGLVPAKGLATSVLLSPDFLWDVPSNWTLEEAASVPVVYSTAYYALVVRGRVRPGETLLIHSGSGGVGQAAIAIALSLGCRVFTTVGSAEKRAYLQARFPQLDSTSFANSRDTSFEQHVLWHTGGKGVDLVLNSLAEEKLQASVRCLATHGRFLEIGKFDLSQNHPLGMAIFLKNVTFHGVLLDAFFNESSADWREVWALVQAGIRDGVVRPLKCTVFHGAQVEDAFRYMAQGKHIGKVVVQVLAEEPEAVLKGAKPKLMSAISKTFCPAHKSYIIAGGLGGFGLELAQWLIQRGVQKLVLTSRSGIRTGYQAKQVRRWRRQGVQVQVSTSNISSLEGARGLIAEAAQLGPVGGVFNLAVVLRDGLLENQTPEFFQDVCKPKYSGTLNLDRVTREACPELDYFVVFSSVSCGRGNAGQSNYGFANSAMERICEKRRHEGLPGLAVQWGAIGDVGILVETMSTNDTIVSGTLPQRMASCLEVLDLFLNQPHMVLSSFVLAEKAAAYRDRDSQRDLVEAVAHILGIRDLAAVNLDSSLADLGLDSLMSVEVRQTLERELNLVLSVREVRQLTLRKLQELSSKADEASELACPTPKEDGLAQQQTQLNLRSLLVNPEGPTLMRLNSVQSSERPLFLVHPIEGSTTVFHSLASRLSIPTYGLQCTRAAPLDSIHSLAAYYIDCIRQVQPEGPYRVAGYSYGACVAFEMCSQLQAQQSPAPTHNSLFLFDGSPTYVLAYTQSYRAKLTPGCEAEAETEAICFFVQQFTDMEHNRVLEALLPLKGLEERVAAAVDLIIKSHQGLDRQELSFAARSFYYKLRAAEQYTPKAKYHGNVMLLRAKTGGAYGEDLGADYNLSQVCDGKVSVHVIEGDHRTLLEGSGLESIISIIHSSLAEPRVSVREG
The subject of assay [5] is MCF-7 cells. The settings on record: cited from earlier work.

Some results are limits rather than exact numbers.

Take `C=C1C(=O)OC(CCCCCCCC)C1C(=O)O` (stereo not shown) [Compound C75]: in the assay with MCF-7 cells [1] (10 μg/mL), the “Fatty Acid Oxidation (% Control)” value is 400 % Control. Moreover, the “effect on fatty acid oxidation” value with MCF-7 cells [1] (MCF-7, doses from 5-20 μg/ml) is on record as “increased fatty acid oxidation”. In the assay with MCF-7 cells [1] (MCF-7, treated 2 hours before measurement, FIG. 1), the “increase in fatty acid oxidation compared to the control” value came to 156%. The “increase in CPT-1 activity above control” value in the assay on CPT-1 was found to be 377%. Moreover, in the assay with 3T3-L1 adipocytes [2], the fatty acid oxidation entry is “significantly increased”. In addition, the “levels of ATP” value in the assay on 3T3-L1 adipocytes [3] is “significantly increased”. In addition, the “time for RER drop to oxidation of fatty acids” value in assay [4] (30 mg/kg) was at most 2 h. Besides, the “respiratory exchange ratio (RER) after treatment” value in assay [4] (FIG. 8B) is recorded as about 0.7. Also, at FAS, the “FAS Inhibition (IC50)” value was determined as 55 µg/mL. Moreover, the “increase in malonyl-CoA” value with MCF-7 cells [5] was over 5 fold.
